Measurements published in patent US3954793A, “1-(2-Propynyl)-1 H-indazole compounds” (priority 1973, dated 1976).

Assays:
[1] = test system: IN/WHO strain house flies; test: topical application, percent kill after 24 hours, susceptible IN/WHO strain; type: in vivo, female); conditions: for percent kill after 24 hours, synergist alone: insecticide 0, synergist 1 μg/fly; for percent kill after 24 hours, synergist alone (GS 13005 part of Table XXXI): GS 13005 0, synergist 1 μg/fly; for percent kill after 24 hours, with GS 13005: GS 13005 0.10 + synergist 0.50 μg/fly; for percent kill after 24 hours, with Mobam: Mobam 0.20 + synergist 1 μg/fly
Experimental: (§1) In Table IX, and in the tables following it, the doses of topically applied insecticides and of synergists unless otherwise noted are expressed as micrograms per fly (μg/fly).
(§2) The synergistic effect of O-(2-propynyl) oximes with mobam was determined from topical application tests on susceptible, female, IN/WHO strain house flies and from tests on resistant, female, Rutgers A strain house flies. The synergist and insecticide were dissolved in ACS Grade acetone in such quantities that a 1.0 μ liter volume applied to the thorax of 3-to-5 day old CO2 -anesthetized female adult house flies contained the desired dosage. After being treated, the flies were confined, 10 to a plaster petri dish, with 3-5 dishes/treament, and held for 24-hr. observation of mortality. Reconstituted skim milk on cotton dental wicks was provided during the holding period. The percent kills after 24 hours are shown in Table X for the IN/WHO strain and Table XI for the Rutgers A strain.
(§3) The synergistic effect of benzyl 2-propynyl ethers with mobam was determined from topical application tests on IN/WHO and Rutgers A strain houseflies, following the procedure of Example 5. The percent kills after 24 hours are shown in Table XIV for the IN/WHO strain and in Table XV for the Rutgers A strain.
The effects of varying the insecticide dose and the synergist-insecticide ratio are further illustrated, with synergist compounds II-D, II-E, II-F and Mobam insecticide, in Tables XVI, XVII and XVIII. […]
The effect on IN/WHO flies of synergist compound IV-C, identified in Table IV, with mobam was determined by the topical application procedure of Example 5. […]
(§4) The synergistic effect with GS 13005 of compounds I-A, I-B, I-D, I-E, I-F, I-G and I-I was determined from topical application tests to IN/WHO strain, Rutgers A strain and polyvalent CH strain houseflies using the procedures of Example 5. The percent kills of the IN/WHO strain flies after 24 hours are shown in Table XXVIII; of the Rutgers A strain, in Table XXIX; and of the polyvalent CH strain, in Table XXX. The doses of insecticide alone to the CH strain files caused 10-40% mortality.
The synergistic effect with Diazinon and GS 13005 of various of the benzyl 2-propynyl ethers identified in Tables II and IIa was determined by topical application tests on IN/WHO strain, and Rutgers A strain and polyvalent, resistant, CH strain houseflies using the procedures of Example 5. The percent kills after 24 hours of IN/WHO strain flies are shown in Table XXXI; of Rutgers A strain flies, in Table XXXII; and of CH strain flies, in Table XXXIII. The doses of insecticide alone to the CH strain flies caused 10-40% mortality. […]
(§5) The synergistic effect on IN/WHO strain flies and Rutgers A strain flies of compound IV-C with GS 13005 and with Diazinon was determined by the topical application procedure of Example 5. The percent kills of IN/WHO strain flies after 24 hours are shown in Tables XXXVI and XXXVII; the percent kills of Rutgers A strain flies are shown in Tables XXXVIII and XXXIX.

[2] = test system: Rutgers A strain house flies; test: topical application, percent kill after 24 hours, resistant Rutgers A strain; type: in vivo, female); conditions: for percent kill after 24 hours, with GS 13005: GS 13005 1.0 + synergist 5.0 μg/fly; for percent kill after 24 hours, with Mobam: Mobam 0.40 + synergist 2.0 μg/fly
Experimental: as §1, §2, §3
The synergistic effect with Diazinon of compounds I-B, I-D, I-F, I-G, I-H and I-I, identified in Tables I and Ia, was determined from topical application tests on IN/WHO strain houseflies and on Rutgers A strain houseflies by the procedure of Example 5. The percent kills after 24 hours are shown in Table XXV for the IN/WHO strain and Table XXVI for the Rutgers A strain.
as §4
The synergistic effect with Diazinon and GS 13005 of various of the benzyl 2-propynyl ethers identified in Tables II and IIa was determined by topical application tests on IN/WHO strain, and Rutgers A strain and polyvalent, resistant, CH strain houseflies using the procedures of Example 5. The percent kills after 24 hours of IN/WHO strain flies are shown in Table XXXI; of Rutgers A strain flies, in Table XXXII; and of CH strain flies, in Table XXXIII. The doses of insecticide alone to the CH strain flies caused 10-40% mortality.
as §5

[3] = test system: Swiss albino, white male mice; test: acute toxicity and synergism of acute toxicity in mice; type: in vivo; conditions: for number of mice dead, with Dimetilan: 48 hours; for number of mice dead, with GS 13005: GS 13005 71 + synergist 213 mg/kg; for number of mice dead, with Methadone: Methadone 32 + synergist 215 mg/kg; for number of mice dead, with Secobarbital: Secobarbital 90 + synergist 215 mg/kg
Experimental: To determine the acute toxicity of dimetilan alone, eight dosage levels of Dimetilan, ranging from 4 to 32 mg per kg were applied to eight, Swiss, albino, white, male mice per dosage level. The mice weighed approximately 23 to 27 grams and were five to six weeks old. The Dimetilan was administered intraperitoneally in 0.1 ml of corn oil one hour after the administration of the same dose of corn oil alone.
To determine the acute toxicity of the synergist alone, various synergists were administered intraperitoneally at a dose of 1000 mg/kg to each of a group of eight mice. The number of animals dead at the end of 72 hours is reported in the left hand column of Table XXXXVI.
The synergism of the acute toxicity of Dimetilan by various synergists was determined by tests on Swiss albino, white male mice aged five to six weeks and weighing 23 to 27 grams. The synergists and insecticides were dissolved in corn oil and the drugs were dissolved in distilled water. All compounds were administered intraperitoneally by injection in the lower quadrent of the abdomen. The synergist was administered in 0.1 ml of corn oil one hour prior to administration of the insecticide. Eight mice were treated, per dosage, with each synergist. The mice were watched for a minimum of 6 hours while held in a glass jar with bedding individually after intraperitoneal injection of the test solutions. Lethality was noted, the animals were weighed and transferred in cages, and food and water were supplied. Control mice were given 0.1 ml of corn oil at the time of administration of the synergist to the test mice and 0.1 ml corn oil plus Dimetilan at the time of administration of the insecticide to the test mice.
By the same procedure, the synergism of acute toxicity of GS 13005, Secobarbital and 6-dimethylamino-4,4-diphenyl-3-heptanone [Methadone] was determined.

male mice = test: extension of sleeping time of depressant drugs by synergists; type: in vivo, male mice (Swiss albino white); conditions: for Mean Sleeping Time, Noludar / Relative Sleeping Time, Noludar: Noludar 110 mg/kg; for Relative Sleeping Time, Noludar / Relative Sleeping Time, Secobarbital: treated/control; for Mean Sleeping Time, Secobarbital / Relative Sleeping Time, Secobarbital: Secobarbital 37 mg/kg
Experimental: The selectivity of the synergist compounds of this invention is illustrated by the results of sleeping-time extension tests and of acute toxicity tests on Swiss albino white male mice.
The effect of various synergist compounds on sleeping time of sodium secobarbital [Secobarbital] and of 3,3-diethyl-5-methyl-2,4-dioxypiperidine [Noludar] was determined by administering the drug, with and without synergist, to approximately 38-day old male mice weighing from 25 to 30 grams. Synergists were administered in each of two doses, 74.0 mg/kg (dilution being 2.0 mg/0.1 ml corn oil), and 110.0 mg/kg (dilution 3.0 mg/0.1 ml oil). Secobarbital was administered at a dose of 37.0 mg/kg (dilution 1.0 mg/0.1 ml water). Noludar was administered at a dose of 110.0 mg/kg (dilution 3.0 mg/0.1 ml water). The synergist was administered one hour prior to administration of the Secobarbital or Noludar. Secobarbital and Noludar sleeping times were obtained for both the control (drug only) and the treated (synergist plus drug) mice by noting the time lapse between the administration of the drug and the recovery of the righting reflex, i.e. when the animal regains conciousness and can walk up an inclined wooden tray with coordination. The relative sleeping time (R.S.) was noted. The R.S. is the extended sleeping time in the treated mice (synergist plus drug) divided by the sleeping time in the control mice (drug only). The mean sleeping time for the treated mice and the R.S. are shown on Table XXXXIV for various synergist compounds.

[4] = Dimetilan 8 + synergist 80 mg/kg i.p., eight mice
[5] = Dimetilan 8 + synergist 240 mg/kg i.p., eight mice
[6] = insecticide 0, synergist 5.0 μg/fly
[7] = synergist 110 mg/kg one hour prior
[8] = synergist 74 mg/kg one hour prior

SMILES | percent kill after 24 hours, synergist alone [1] [%] | number of mice dead, with Dimetilan [3, 4] | number of mice dead, with Dimetilan [3, 5] | percent kill after 24 hours, with GS 13005 [2] [%] | percent kill after 24 hours, with Mobam [2] [%] | percent kill after 24 hours, synergist alone [2, 6] [%] | percent kill after 24 hours, synergist alone (GS 13005 part of Table XXXI) [1] [%] | percent kill after 24 hours, with GS 13005 [1] [%] | percent kill after 24 hours, with Mobam [1] [%] | Mean Sleeping Time, Noludar (male mice; [7]) [min] | Relative Sleeping Time, Noludar (male mice; synergist 110 mg/kg) | Mean Sleeping Time, Secobarbital (male mice; [8]) [min] | Relative Sleeping Time, Secobarbital (male mice; synergist 74 mg/kg) | Mean Sleeping Time, Secobarbital (male mice; [7]) [min] | Relative Sleeping Time, Secobarbital (male mice; synergist 110 mg/kg) | other results
CNC(=O)Oc1ccccc1OC(C)C [Baygon, o-isopropoxyphenyl methylcarbamate, reference compound] |  |  |  |  |  |  |  |  |  |  |  |  |  |  |  | 24 hour percent mortality, insecticide alone ([1]; insecticide 0.125 μg/fly (Table XXI)): 0%
COP(=O)(OC)O/C(C)=C/C(=O)N(C)C [Bidrin, 3-hydroxy-N,N-dimethyl-cis-crotonamide, dimethyl phosphate, reference compound] |  |  |  |  |  |  |  |  |  |  |  |  |  |  |  | 24 hour percent mortality, Bidrin alone ([1]; Bidrin 0.063 μg/fly): 0%; 24 hour percent mortality, Bidrin alone ([1]; Bidrin 0.13 μg/fly): 0%
COP(=O)(OC)OC(=CCl)c1cc(Cl)c(Cl)cc1Cl [Gardona, 2-chloro-1-(2,4,5-trichlorophenyl) vinyl dimethyl phosphate, reference compound] |  |  |  |  |  |  |  |  |  |  |  |  |  |  |  | 24 hour percent mortality, Gardona alone ([1]; Gardona 0.031 μg/fly): 13%; 24 hour percent mortality, Gardona alone ([1]; Gardona 0.063 μg/fly): 73%; 24 hour percent mortality, Gardona alone ([1]; Gardona 0.125 μg/fly): 100%
C#CCON=Cc1ccc(Cl)cc1 [I-H] | 0 |  |  |  |  |  |  |  |  |  |  |  |  |  |  | percent kill after 24 hours, with Diazinon ([2]; Diazinon 1.5 + synergist 7.5 μg/fly): 80%; percent kill after 24 hours, with Diazinon ([2]; Diazinon 3.0 + synergist 15 μg/fly): 100%; percent kill after 24 hours, synergist alone ([2]; insecticide 0, synergist 7.5 μg/fly): 0%; percent kill after 24 hours, synergist alone ([2]; insecticide 0, synergist 15 μg/fly): 0%; percent kill after 24 hours, with Diazinon ([1]; Diazinon 0.02 + synergist 0.10 μg/fly): 47%
C#CCOCc1cccc(Cl)c1[N+](=O)[O-] [II-I] | 7 | 0 | 3 | 83 | 37 | 3 | 7 | 99 | 97 | 56 | 1.8 | 31 | 1.2 | 32 | 1.3 | 
C#CCOCc1ccc(Cl)cc1[N+](=O)[O-] [II-J] | 13 | 0 | 4 | 100 | 70 | 0 | 13 | 99 | 100 | 70 | 2.2 | 27 | 1.0 | 30 | 1.4 | number of mice dead, with GS 13005 [3]: 6; number of mice dead, with Methadone [3]: 3; number of mice dead, with Secobarbital [3]: 0
C#CCOCc1cccc([N+](=O)[O-])c1Cl [II-L] | 3 | 0 | 5 | 83 | 52 | 0 | 3 | 97 | 89 | 56 | 1.8 | 31 | 1.0 | 42 | 1.8 | 
CCC(=O)C(CC(C)N(C)C)(c1ccccc1)c1ccccc1 (centres unmarked) [Methadone, 6-dimethylamino-4,4-diphenyl-3-heptanone, reference compound] |  |  |  |  |  |  |  |  |  |  |  |  |  |  |  | number of mice dead, control (Methadone alone) ([3]; Methadone (32 mg/kg) in 0.1 ml corn oil): 2
C=CCC1(C(C)CCC)C(=O)NC(=O)NC1=O (centres unmarked) [Secobarbital, sodium secobarbital, reference compound] |  |  |  |  |  |  |  |  |  |  |  |  |  |  |  | number of mice dead, control (Secobarbital alone) ([3]; Secobarbital (90 mg/kg) in 0.1 ml corn oil): 0
CCOCCOCCOC(C)Oc1ccc2c(c1)OCO2 (centres unmarked) [Sesoxane, reference compound] |  | 8 | 8 |  |  |  |  |  |  |  | 3.1 |  | 6.1 |  | 8.3 | number of mice dead, with GS 13005 [3]: 0; number of mice dead, with Methadone [3]: 5; number of mice dead, with Secobarbital [3]: 6; number of mice dead, synergist alone ([3]; synergist 1000 mg/kg i.p., Dimetilan 0, 72 hours, eight mice): 1
